In paper PMC4357015, “Structure, Function and Inhibition of the Phosphoethanolamine Methyltransferases of the Human Malaria Parasites Plasmodium vivax and Plasmodium knowlesi” (Scientific Reports, 2015):
pIC50: −log10 of the molar value.

Assays:
PkPMT = target: T1, PkPMT (Plasmodium knowlesi, UniProt A0A384KJX3); experiment: radiometric PMT transmethylation assay, inhibition of PkPMT; type: biochemical; conditions: P-Etn 2 mM, SAM 1.5 mM; inhibitor 0, 100, 500, 1000 μM; read-out: IC50, inhibition of PkPMT activity
T1 sequence (A0A384KJX3 1-264): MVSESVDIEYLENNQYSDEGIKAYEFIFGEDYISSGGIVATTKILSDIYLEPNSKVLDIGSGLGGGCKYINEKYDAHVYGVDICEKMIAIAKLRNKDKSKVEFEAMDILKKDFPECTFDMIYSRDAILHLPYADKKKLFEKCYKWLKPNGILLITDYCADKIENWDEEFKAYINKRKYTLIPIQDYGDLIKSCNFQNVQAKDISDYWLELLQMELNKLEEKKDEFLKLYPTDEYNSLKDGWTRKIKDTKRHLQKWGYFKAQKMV
Description: Figure 3 Amodiaquine (AQ) and NSC158011 inhibit the activity of PvPMT and PkPMT. Enzyme inhibition assays with different concentrations of Amodiaquine (AQ), NSC158011 and Chloroquine (CQ) were carried out at constant P-Etn (2 mM) and SAM (1.5 mM) concentrations. The activity in the absence of any drug was taken as 100% and % enzyme activity was calculated in the presence of different drug concentrations (100, 500, 1000 μM). To determine the concentration that results in 50% inhibition of enzyme activity (IC50), the data were fitted to a non-linear regression analysis in the following equation Y = 100/(1 + ([X]/IC50)), where Y is % enzyme activity and X is drug concentration using Graph pad software.
For enzyme kinetics studies recombinant histidine-tagged proteins were expressed using 1 mM IPTG for 4 h, purified using Ni-affinity purification and dialyzed. As expected, purified proteins migrated in SDS-PAGE gels at approximately 31 kDa. The purified proteins were stored in HEPES-KOH buffer (pH 7.4) at 4°C and were assayed within a month of purification. During this time, the integrity of the protein was assessed by SDS-PAGE. The kinetic properties of enzymes were assessed using radiometric assay wherein incorporation of radioactive labeled methyl donor (100nCi [methyl-^14C] SAM, Perkin elmer NEC363010UC) or (200nCi [methyl-^3H] SAM, Perkin Elmer NET155H250UC) was measured. […]

PfPMT = test system: PfPMT; parameters: method as in PMID 20085640, PMID 24145416; conditions: cited from earlier work
pem1Δpem2Δ-pYES2.1-PvPMT = experiment: yeast growth inhibition, pem1Δpem2Δ strain expressing PvPMT; type: cell-based; conditions: 100 μM AQ
Description: Figure 5 PMT-dependent inhibition of growth and PC biosynthesis by amodiaquine and NSC158011. (A–C): Growth curves of pem1Δpem2Δ-pYES2.1-PkPMT (A), pem1Δpem2Δ-pYES2.1-PvPMT (B), or Wild Type-pYES2.1- (C) strains grown in minimal medium containing 4% galactose and 1 mM ethanolamine in the presence or absence of 100 μM choline and 100 μM amodiaquine (AQ) as indicated. Growth curves of pem1Δpem2Δ-pYES2.1-PkPMT (D), pem1Δpem2Δ-pYES2.1-PvPMT (E), or Wild Type-pYES2.1- (F) strains maintained in minimal medium containing 4% galactose and 1 mM ethanolamine in the presence or absence of 100 μM choline and 10 μM NSC158011.
pem1Δpem2Δ-pYES2.1, pem1Δpem2Δ-pYES2.1-PkPMT, pem1Δpem2Δ-pYES2.1-PvPMT, and pem1Δpem2Δ-pYES2.1-PfPMT yeast strains were pre-grown overnight in uracil dropout synthetic galactose (4%) (SG-URA) medium supplemented with 2 mM ethanolamine (Etn). Cells were diluted to an A600 = 0.001 in fresh SG-URA medium supplemented with 2 mM Etn in the presence or absence of 100 μM Choline (Cho). Cells were grown at 30°C and the growth was monitored by measuring the A600. […]

CCN(CC)Cc1cc(Nc2ccnc3cc(Cl)ccc23)ccc1O [AQ, amodiaquine]
pIC50 (PkPMT): 3.40
mode of inhibition of PfPMT (PfPMT): non-competitive inhibitors
growth of pem1Δpem2Δ+PvPMT strain in media supplemented with choline (pem1Δpem2Δ-pYES2.1-PvPMT; 100 μM choline): no effect
growth of pem1Δpem2Δ+PvPMT strain (pem1Δpem2Δ-pYES2.1-PvPMT; ethanolamine medium without choline): significantly inhibited
